Experimental data as given in patent US9770026B2, “Substituted pyrimidine compound and uses thereof” (Shenyang Sinochem Agrochemicals R&D Co., Ltd., priority 2012, dated 2017).

Legend:
carmine spider mite = assay: bioactivity test against carmine spider mite, airbrush spray; assay type: in vivo; details: for Insecticidal activity against carmine spider mite (% ): contrastive test; for control against carmine spider mite: mortality after 72 hrs
Summary of the method: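 Broadbean seedlings infested with adult mites were sprayed with compound (acetone/methanol stock diluted in 0.1% Tween 80 water) by airbrush at 0.7 kg/cm^2, 0.5 ml. Three replicates were run. Mortality was scored after 72 hrs.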

armyworm = assay: bioactivity test against armyworm, airbrush spray; assay type: in vivo
Diamond back moth = assay: insecticidal activity against diamond back moth, airbrush spray; assay type: in vivo; details: for control (test results against diamond back moth): mortality after 72 hrs
Summary of the method: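 Airbrush leaf-disc spray test: both faces of 2 cm cabbage discs received 0.5 ml of test solution at 0.7 kg/cm^2. Solutions were made in acetone:methanol (1:1) and brought to concentration with 0.1% Tween 80 in water. Ten second-instar larvae per disc, triplicates, were held at 25° C and 60˜70% R.H., with mortality recorded at 72 hrs.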

[1] = system: Green peach aphids (Myzus Persicae Sulzer); assay: bioactivity test against green peach aphid, airbrush foliar spray; assay type: in vivo; details: for control (test results against green peach aphid): death rate after 48 hrs; for Insecticidal activity against peach aphid (%): contrastive test
Summary of the method: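 Death rate was scored at 48 hrs, held at 25±1 C and 60±5% RH, following airbrush foliar spray (0.5 mL, 10 psi) onto cabbage leaf discs bearing about 15-30 aphids. Test solutions: compound dissolved in 1:1 acetone:methanol, brought to concentration with 0.1% tween 80 water.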

corn rust = assay: protectant activity in vivo against corn rust
cucumber downy mildew = assay: protectant activity in vivo against cucumber downy mildew; details: for control effect against cucumber downy mildew (%): protectant activity
wheat powdery mildew = assay: protectant activity in vivo against wheat powdery mildew

Cc1ccc(Oc2ccc(CCNc3ncnc(C)c3Cl)cn2)cc1 [III-16]
100%: Insecticidal activity against carmine spider mite (% ) (carmine spider mite; 100 mg/L) | Insecticidal activity against carmine spider mite (% ) (carmine spider mite; 600 mg/L) | control against carmine spider mite (carmine spider mite; 100 ppm) | control against carmine spider mite (carmine spider mite; 600 ppm) | control (test results against armyworm) (armyworm; 600 ppm, mortality after 72 h) | control (test results against diamond back moth) (Diamond back moth; 600 ppm) | control (test results against green peach aphid) ([1]; 100 ppm) | control (test results against green peach aphid) ([1]; 600 ppm) | protectant activity against corn rust in vivo (corn rust; 400 ppm) | control effect against cucumber downy mildew (%) (cucumber downy mildew; 6.25 mg/L) | control effect against cucumber downy mildew (%) (cucumber downy mildew; 12.5 mg/L) | control effect against cucumber downy mildew (%) (cucumber downy mildew; 25 mg/L) | control effect against cucumber downy mildew (%) (cucumber downy mildew; 50 mg/L) | control effect against cucumber downy mildew (%) (cucumber downy mildew; 100 mg/L) | control effect against cucumber downy mildew (%) (cucumber downy mildew; 400 mg/L) | protectant activity against cucumber downy mildew in vivo (cucumber downy mildew; 6.25 ppm) | protectant activity against cucumber downy mildew in vivo (cucumber downy mildew; 12.5 ppm) | protectant activity against cucumber downy mildew in vivo (cucumber downy mildew; 25 ppm) | protectant activity against cucumber downy mildew in vivo (cucumber downy mildew; 50 ppm) | protectant activity against cucumber downy mildew in vivo (cucumber downy mildew; 100 ppm) | protectant activity against cucumber downy mildew in vivo (cucumber downy mildew; 400 ppm) | protectant activity against wheat powdery mildew in vivo (wheat powdery mildew; 400 ppm)

FC(F)c1ncnc(NCCc2ccc(Oc3ccc(Cl)cc3)nc2)c1Cl [III-547]
95%: Insecticidal activity against armyworm (%) (armyworm; 10 mg/L)
57%: Insecticidal activity against diamond back moth (%) (Diamond back moth; 10 mg/L)
100%: Insecticidal activity against carmine spider mite (% ) (carmine spider mite; 100 mg/L) | Insecticidal activity against carmine spider mite (% ) (carmine spider mite; 600 mg/L) | control against carmine spider mite (carmine spider mite; 100 ppm) | control against carmine spider mite (carmine spider mite; 600 ppm) | Insecticidal activity against armyworm (%) (armyworm; 100 mg/L) | Insecticidal activity against armyworm (%) (armyworm; 600 mg/L) | control (test results against armyworm) (armyworm; 100 ppm, mortality after 72 h) | control (test results against armyworm) (armyworm; 600 ppm, mortality after 72 h) | Insecticidal activity against diamond back moth (%) (Diamond back moth; 100 mg/L) | Insecticidal activity against diamond back moth (%) (Diamond back moth; 600 mg/L) | control (test results against diamond back moth) (Diamond back moth; 100 ppm) | control (test results against diamond back moth) (Diamond back moth; 600 ppm) | Insecticidal activity against peach aphid (%) ([1]; 10 mg/L) | Insecticidal activity against peach aphid (%) ([1]; 100 mg/L) | Insecticidal activity against peach aphid (%) ([1]; 600 mg/L) | control (test results against green peach aphid) ([1]; 10 ppm) | control (test results against green peach aphid) ([1]; 100 ppm) | control (test results against green peach aphid) ([1]; 600 ppm) | protectant activity against corn rust in vivo (corn rust; 400 ppm) | control effect against cucumber downy mildew (%) (cucumber downy mildew; 25 mg/L) | control effect against cucumber downy mildew (%) (cucumber downy mildew; 50 mg/L) | control effect against cucumber downy mildew (%) (cucumber downy mildew; 100 mg/L) | control effect against cucumber downy mildew (%) (cucumber downy mildew; 400 mg/L) | protectant activity against cucumber downy mildew in vivo (cucumber downy mildew; 25 ppm) | protectant activity against cucumber downy mildew in vivo (cucumber downy mildew; 50 ppm) | protectant activity against cucumber downy mildew in vivo (cucumber downy mildew; 100 ppm) | protectant activity against cucumber downy mildew in vivo (cucumber downy mildew; 400 ppm) | protectant activity against wheat powdery mildew in vivo (wheat powdery mildew; 400 ppm)

CCc1ncnc(NCCc2ccc(Oc3ccc(C(F)(F)F)cn3)cc2)c1Cl [Compound I-6765]
84%: Insecticidal activity against peach aphid (%) ([1]; 1.25 mg/L)
100%: Insecticidal activity against carmine spider mite (% ) (carmine spider mite; 10 mg/L) | Insecticidal activity against carmine spider mite (% ) (carmine spider mite; 100 mg/L) | Insecticidal activity against carmine spider mite (% ) (carmine spider mite; 600 mg/L) | control against carmine spider mite (carmine spider mite; 10 ppm) | control against carmine spider mite (carmine spider mite; 100 ppm) | control against carmine spider mite (carmine spider mite; 600 ppm) | control (test results against armyworm) (armyworm; 600 ppm, mortality after 72 h) | pest or weed control at 100 ppm (armyworm; 72 h, 100 ppm, mortality after 72 h) | control (test results against diamond back moth) (Diamond back moth; 100 ppm) | control (test results against diamond back moth) (Diamond back moth; 600 ppm) | Insecticidal activity against peach aphid (%) ([1]; 2.5 mg/L) | Insecticidal activity against peach aphid (%) ([1]; 5 mg/L) | Insecticidal activity against peach aphid (%) ([1]; 10 mg/L) | Insecticidal activity against peach aphid (%) ([1]; 100 mg/L) | Insecticidal activity against peach aphid (%) ([1]; 600 mg/L) | control (test results against green peach aphid) ([1]; 2.5 ppm) | control (test results against green peach aphid) ([1]; 5 ppm) | control (test results against green peach aphid) ([1]; 10 ppm) | control (test results against green peach aphid) ([1]; 100 ppm) | control (test results against green peach aphid) ([1]; 600 ppm) | protectant activity against corn rust in vivo (corn rust; 100 ppm) | protectant activity against corn rust in vivo (corn rust; 400 ppm) | protectant activity against cucumber downy mildew in vivo (cucumber downy mildew; 50 ppm) | protectant activity against cucumber downy mildew in vivo (cucumber downy mildew; 100 ppm) | protectant activity against cucumber downy mildew in vivo (cucumber downy mildew; 400 ppm) | pest or weed control at 25 ppm (cucumber downy mildew; Cucumis sativus, 168 h, read-out: protectant activity against cucumber downy mildew in vivo, 25 ppm) | protectant activity against wheat powdery mildew in vivo (wheat powdery mildew; 6.25 ppm) | protectant activity against wheat powdery mildew in vivo (wheat powdery mildew; 100 ppm) | protectant activity against wheat powdery mildew in vivo (wheat powdery mildew; 400 ppm) | pest or weed control at 6.25 µg/mL (wheat powdery mildew; Triticum aestivum, 168 h, read-out: control effect against wheat powdery mildew (%), 6.25 mg/L, protectant activity) | pest or weed control at 25 µg/mL (wheat powdery mildew; Triticum aestivum, 168 h, read-out: control effect against wheat powdery mildew (%), 25 mg/L, protectant activity) | pest or weed control at 100 µg/mL (wheat powdery mildew; Triticum aestivum, 168 h, read-out: control effect against wheat powdery mildew (%), 100 mg/L, protectant activity) | pest or weed control at 400 µg/mL (wheat powdery mildew; Triticum aestivum, 168 h, read-out: control effect against wheat powdery mildew (%), 400 mg/L, protectant activity) | pest or weed control at 25 ppm (wheat powdery mildew; Triticum aestivum, 168 h, read-out: protectant activity against wheat powdery mildew in vivo, 25 ppm)
80 to 99%: pest or weed control at 6.25 ppm (cucumber downy mildew; Cucumis sativus, 168 h, read-out: protectant activity against cucumber downy mildew in vivo, 6.25 ppm) | pest or weed control at 12.5 ppm (cucumber downy mildew; Cucumis sativus, 168 h, read-out: protectant activity against cucumber downy mildew in vivo, 12.5 ppm)
